Literature values, collected in patent EP1362518A1, “Food product providing sustained blood levels of exogenous substances” (NESTEC S.A., priority 2002, dated 2003).

How the values were obtained:
dogs = settings: 100mg/kg/d (caffeine/body weight/day) consumed for more than 3 days
[1] = not given; remark: listed apart in the source

For Cn1c(=O)c2c(ncn2C)n(C)c1=O [caffeine], the death (dogs) is listed as “death can occur”, the half-life of caffeine (adults) is listed as 3 to 7 h and the “time of peak in caffeine level in blood” value (after consumption of a cup of coffee) is listed as “about an hour”. The “threshold value for stimulation” value ([1]; in vivo) was “about 2 mg/l blood plasma”, the “threshold value of stimulation” value ([1]; in vivo) was “about 2 mg/l plasma” and the “upper end of the desired range” value ([1]; side effects above this range) was “about 20 mg/l blood plasma”.
